Measured values taken from PubChem BioAssay (NCI).
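Exposure lasted 48 hours, with cells grown in 96-well plates and compounds tested at five concentrations. GI50: concentration for 50% inhibition of growth. TGI marks complete inhibition of growth.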

Key:
Assay in all cases: growth of human tumour cells (NCI), 48 h
786-0 renal = tested on: 786-0 renal
A498 renal = tested on: A498 renal
A549 NSCLC = tested on: A549 NSCLC
ACHN renal = tested on: ACHN renal
BT-549 breast = tested on: BT-549 breast
CAKI-1 renal = tested on: CAKI-1 renal
CCRF-CEM leukemia = tested on: CCRF-CEM leukemia
COLO 205 colon = tested on: COLO 205 colon
DU-145 prostate = tested on: DU-145 prostate
HCC-2998 colon = tested on: HCC-2998 colon
HCT-116 colon = tested on: HCT-116 colon
HCT-15 colon = tested on: HCT-15 colon
HL-60(TB) leukemia = tested on: HL-60(TB) leukemia
HOP-62 NSCLC = tested on: HOP-62 NSCLC
HOP-92 NSCLC = tested on: HOP-92 NSCLC
HS 578T breast = tested on: HS 578T breast
HT29 colon = tested on: HT29 colon
IGROV1 ovarian = tested on: IGROV1 ovarian
K-562 leukemia = tested on: K-562 leukemia
KM12 colon = tested on: KM12 colon
LOX IMVI melanoma = tested on: LOX IMVI melanoma
M14 melanoma = tested on: M14 melanoma
MALME-3M melanoma = tested on: MALME-3M melanoma
MCF7 breast = tested on: MCF7 breast
MDA-MB-231 breast = tested on: MDA-MB-231 breast
MDA-MB-435 = tested on: MDA-MB-435
MOLT-4 leukemia = tested on: MOLT-4 leukemia
NCI-H226 lung = tested on: NCI-H226 lung
NCI-H23 lung = tested on: NCI-H23 lung
NCI-H460 lung = tested on: NCI-H460 lung
NCI-H522 lung = tested on: NCI-H522 lung
NCI/ADR-RES ovarian = tested on: NCI/ADR-RES ovarian
OVCAR-3 ovarian = tested on: OVCAR-3 ovarian
OVCAR-4 ovarian = tested on: OVCAR-4 ovarian
OVCAR-5 ovarian = tested on: OVCAR-5 ovarian
OVCAR-8 ovarian = tested on: OVCAR-8 ovarian
PC-3 prostate = tested on: PC-3 prostate
RPMI-8226 leukemia = tested on: RPMI-8226 leukemia
RXF 393 renal = tested on: RXF 393 renal
SF-268 CNS = tested on: SF-268 CNS
SF-539 CNS = tested on: SF-539 CNS
SK-MEL-2 melanoma = tested on: SK-MEL-2 melanoma
SK-MEL-28 melanoma = tested on: SK-MEL-28 melanoma
SK-MEL-5 melanoma = tested on: SK-MEL-5 melanoma
SK-OV-3 ovarian = tested on: SK-OV-3 ovarian
SN12C renal = tested on: SN12C renal
SNB-19 CNS = tested on: SNB-19 CNS
SNB-75 CNS = tested on: SNB-75 CNS
SR leukemia = tested on: SR leukemia
SW-620 colon = tested on: SW-620 colon
T-47D breast = tested on: T-47D breast
TK-10 renal = tested on: TK-10 renal
UACC-62 melanoma = tested on: UACC-62 melanoma
UO-31 renal = tested on: UO-31 renal

**Q.** Which results are given for `CCOC(=O)C1=C(N)CCC1C` (stereo not drawn)?
**A.** GI50 (786-0 renal): > 100 µM; TGI (786-0 renal): > 100 µM; GI50 (A498 renal): > 100 µM; TGI (A498 renal): > 100 µM; GI50 (A549 NSCLC): > 100 µM; TGI (A549 NSCLC): > 100 µM; GI50 (ACHN renal): > 100 µM; TGI (ACHN renal): > 100 µM; GI50 (BT-549 breast): > 100 µM; TGI (BT-549 breast): > 100 µM; GI50 (CAKI-1 renal): > 100 µM; TGI (CAKI-1 renal): > 100 µM; GI50 (CCRF-CEM leukemia): > 100 µM; TGI (CCRF-CEM leukemia): > 100 µM; GI50 (COLO 205 colon): > 100 µM; TGI (COLO 205 colon): > 100 µM; GI50 (DU-145 prostate): > 100 µM; TGI (DU-145 prostate): > 100 µM; GI50 (HCC-2998 colon): > 100 µM; TGI (HCC-2998 colon): > 100 µM; GI50 (HCT-116 colon): > 100 µM; TGI (HCT-116 colon): > 100 µM; GI50 (HCT-15 colon): > 100 µM; TGI (HCT-15 colon): > 100 µM; GI50 (HL-60(TB) leukemia): 69.8 µM; TGI (HL-60(TB) leukemia): > 100 µM; GI50 (HOP-62 NSCLC): > 100 µM; TGI (HOP-62 NSCLC): > 100 µM; GI50 (HOP-92 NSCLC): 41.2 µM; TGI (HOP-92 NSCLC): > 100 µM; GI50 (HS 578T breast): > 100 µM; TGI (HS 578T breast): > 100 µM; GI50 (HT29 colon): > 100 µM; TGI (HT29 colon): > 100 µM; GI50 (IGROV1 ovarian): > 100 µM; TGI (IGROV1 ovarian): > 100 µM; GI50 (K-562 leukemia): > 100 µM; TGI (K-562 leukemia): > 100 µM; GI50 (KM12 colon): > 100 µM; TGI (KM12 colon): > 100 µM; GI50 (LOX IMVI melanoma): > 100 µM; TGI (LOX IMVI melanoma): > 100 µM; GI50 (M14 melanoma): > 100 µM; TGI (M14 melanoma): > 100 µM; GI50 (MALME-3M melanoma): > 100 µM; TGI (MALME-3M melanoma): > 100 µM; GI50 (MCF7 breast): > 100 µM; TGI (MCF7 breast): > 100 µM; GI50 (MDA-MB-231 breast): > 100 µM; TGI (MDA-MB-231 breast): > 100 µM; GI50 (MDA-MB-435): > 100 µM; TGI (MDA-MB-435): > 100 µM; GI50 (MOLT-4 leukemia): 22.7 µM; TGI (MOLT-4 leukemia): 65.5 µM; GI50 (NCI-H226 lung): > 100 µM; TGI (NCI-H226 lung): > 100 µM; GI50 (NCI-H23 lung): > 100 µM; TGI (NCI-H23 lung): > 100 µM; GI50 (NCI-H460 lung): > 100 µM; TGI (NCI-H460 lung): > 100 µM; GI50 (NCI-H522 lung): > 100 µM; TGI (NCI-H522 lung): > 100 µM; GI50 (NCI/ADR-RES ovarian): > 100 µM; TGI (NCI/ADR-RES ovarian): > 100 µM; GI50 (OVCAR-3 ovarian): > 100 µM; TGI (OVCAR-3 ovarian): > 100 µM; GI50 (OVCAR-4 ovarian): > 100 µM; TGI (OVCAR-4 ovarian): > 100 µM; GI50 (OVCAR-5 ovarian): > 100 µM; TGI (OVCAR-5 ovarian): > 100 µM; GI50 (OVCAR-8 ovarian): > 100 µM; TGI (OVCAR-8 ovarian): > 100 µM; GI50 (PC-3 prostate): > 100 µM; TGI (PC-3 prostate): > 100 µM; GI50 (RPMI-8226 leukemia): > 100 µM; TGI (RPMI-8226 leukemia): > 100 µM; GI50 (RXF 393 renal): > 100 µM; TGI (RXF 393 renal): > 100 µM; GI50 (SF-268 CNS): > 100 µM; TGI (SF-268 CNS): > 100 µM; GI50 (SF-539 CNS): > 100 µM; TGI (SF-539 CNS): > 100 µM; GI50 (SK-MEL-2 melanoma): > 100 µM; TGI (SK-MEL-2 melanoma): > 100 µM; GI50 (SK-MEL-28 melanoma): > 100 µM; TGI (SK-MEL-28 melanoma): > 100 µM; GI50 (SK-MEL-5 melanoma): > 100 µM; TGI (SK-MEL-5 melanoma): > 100 µM; GI50 (SK-OV-3 ovarian): > 100 µM; TGI (SK-OV-3 ovarian): > 100 µM; GI50 (SN12C renal): > 100 µM; TGI (SN12C renal): > 100 µM; GI50 (SNB-19 CNS): > 100 µM; TGI (SNB-19 CNS): > 100 µM; GI50 (SNB-75 CNS): > 100 µM; TGI (SNB-75 CNS): > 100 µM; GI50 (SR leukemia): 8.35 µM; TGI (SR leukemia): > 100 µM; GI50 (SW-620 colon): > 100 µM; TGI (SW-620 colon): > 100 µM; GI50 (T-47D breast): > 100 µM; TGI (T-47D breast): > 100 µM; GI50 (TK-10 renal): > 100 µM; TGI (TK-10 renal): > 100 µM; GI50 (UACC-62 melanoma): > 100 µM; TGI (UACC-62 melanoma): > 100 µM; GI50 (UO-31 renal): > 100 µM; TGI (UO-31 renal): > 100 µM
